Drawing on patent US7732596B2, “Fused heterocycle derivative, medicinal composition containing the same, and medicinal use thereof” (Kissei Pharmaceutical Co., Ltd., priority 2004, dated 2010), this text covers IC50 for three compounds.

The structures appear in SMILES notation.

The target of one assay is T1, human SGLT2 (Homo sapiens, UniProt P31639).
T1 construct: expressed in transfected cells
T1 sequence (P31639 1-672): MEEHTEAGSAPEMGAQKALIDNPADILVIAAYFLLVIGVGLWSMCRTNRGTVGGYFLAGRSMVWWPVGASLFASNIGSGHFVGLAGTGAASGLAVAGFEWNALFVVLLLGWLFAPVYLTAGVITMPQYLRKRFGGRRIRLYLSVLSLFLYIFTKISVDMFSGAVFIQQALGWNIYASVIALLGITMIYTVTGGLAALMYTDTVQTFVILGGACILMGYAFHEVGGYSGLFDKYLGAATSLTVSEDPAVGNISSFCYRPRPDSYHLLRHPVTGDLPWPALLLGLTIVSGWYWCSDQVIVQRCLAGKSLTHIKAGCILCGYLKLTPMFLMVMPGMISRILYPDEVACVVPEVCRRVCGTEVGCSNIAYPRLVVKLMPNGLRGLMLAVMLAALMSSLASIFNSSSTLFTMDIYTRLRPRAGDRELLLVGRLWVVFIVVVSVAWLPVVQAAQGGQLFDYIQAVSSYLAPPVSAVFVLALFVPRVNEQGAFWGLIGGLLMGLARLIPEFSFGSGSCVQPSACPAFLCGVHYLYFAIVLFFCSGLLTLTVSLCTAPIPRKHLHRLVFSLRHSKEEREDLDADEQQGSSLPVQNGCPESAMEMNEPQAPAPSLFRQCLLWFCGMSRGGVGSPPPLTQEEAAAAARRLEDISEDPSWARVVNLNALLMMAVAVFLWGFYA
The assay can be described thus: Assay for inhibitory effects on human SGLT2 activity (uptake of methyl-α-D-glucopyranoside in CS2-5E cells). Format: cell-based. To be noted: CHO-K1 cells stably expressing human SGLT2 (CS2-5E), 1 mM 14C-α-MG uptake, 37° C., 1 hour. How it is done: Assay for Inhibitory Effects on Human SGLT2 Activity 1) Cloning and Construction of the Vector Expressing Human SGLT2 The cDNA library was prepared for PCR amplification by reverse transcription from total RNA deprived from human kidney (Ori gene) using oligo-dT as a primer. Using this cDNA library as a template, the DNA fragment coding 2 to 2039 bp of human SGLT2 (ACCESSION: M95549, M95299), which was reported by R. G. Wells et al., was amplified by PCR method and inserted into the multi-cloning site of pcDNA3.1 (−) (Invitrogen). The DNA sequence inserted was perfectly matched to the previously reported sequence. 2) Establishment of Cell Line Stably Expressing Human SGLT2 The expression vector of human SGLT2 was digested by Sca I into a linear DNA. The linear DNA was transfected into CHO-K1 cells by means of lipofection (Effectene Transfection Reagent: QIAGEN). Neomycin resistant cell lines were selected by culture in the medium containing G418 (1 mg/mL, LIFE TECHNOLOGIES), and then the activity against the uptake of methyl-α-D-glucopyranoside was measured by the method described below. […] CS2-5E cells were cultured in the presence of G418 at 200 μg/mL. 3) Measurement of the Inhibitory Activity Against the Uptake of Methyl-α-D-glucopyranoside (α-MG) CS2-5E cells were seeded into a 96-well culture plate at a density of 3×10^4 cells/well and cultured for 2 days, and were used in the uptake assay. A mixture of non-labeled (Sigma) and ^14C-labeled α-MG (Amersham Pharmacia Biotech) was added to the uptake buffer (pH 7.4; containing 140 mM sodium chloride, 2 mM potassium chloride, 1 mM calcium chloride, 1 mM magnesium chloride, […] and 5 mM tris(hydroxymethyl)aminomethane) at the final concentration of 1 mM. […] Radioactivity was measured by means of micro-scintillation counter TopCount (Packard). One hundred % was set to the difference between the uptake in the control group and the basal uptake, and the uptake of methyl α-D-glucopyranoside at each drug concentration were calculated. […]

A further assay addresses T2, human SGLT1 (Homo sapiens, UniProt P13866).
T2 construct: expressed in transfected cells
T2 sequence (P13866 1-664): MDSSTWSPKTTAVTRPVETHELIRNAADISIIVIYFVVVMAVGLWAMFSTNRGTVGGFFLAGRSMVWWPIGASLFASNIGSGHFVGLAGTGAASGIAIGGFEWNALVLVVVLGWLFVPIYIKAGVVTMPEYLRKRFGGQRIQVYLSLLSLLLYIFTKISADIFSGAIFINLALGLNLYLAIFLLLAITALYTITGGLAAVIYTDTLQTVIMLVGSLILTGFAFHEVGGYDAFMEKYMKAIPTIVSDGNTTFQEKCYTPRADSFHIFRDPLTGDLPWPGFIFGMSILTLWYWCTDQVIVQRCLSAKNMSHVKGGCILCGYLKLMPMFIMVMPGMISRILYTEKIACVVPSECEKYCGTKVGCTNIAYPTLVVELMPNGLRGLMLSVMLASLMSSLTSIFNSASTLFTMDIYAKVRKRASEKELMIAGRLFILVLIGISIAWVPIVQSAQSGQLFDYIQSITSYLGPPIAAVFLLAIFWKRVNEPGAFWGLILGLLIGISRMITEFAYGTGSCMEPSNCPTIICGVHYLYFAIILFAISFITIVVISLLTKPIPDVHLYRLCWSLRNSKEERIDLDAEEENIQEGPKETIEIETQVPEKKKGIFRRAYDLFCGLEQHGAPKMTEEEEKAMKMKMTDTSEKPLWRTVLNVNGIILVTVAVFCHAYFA
Briefly: Assay for inhibitory effects on human SGLT1 activity (uptake of methyl-α-D-glucopyranoside in CS1-5-11D cells). Type of assay: cell-based. To be noted: CHO-K1 cells stably expressing human SGLT1 (CS1-5-11D), 1 mM 14C-α-MG uptake, 37° C., 1 hour. How it is done: Assay for Inhibitory Effects on Human SGLT1 Activity
1) Cloning and Construction of the Vector Expressing Human SGLT1
The cDNA library was prepared for PCR amplification by reverse transcription from total RNA deprived from human small intestine (Ori gene) using oligo-dT as a primer. Using this cDNA library as a template, the DNA fragment coding 1 to 2005 bp of human SGLT1 (ACCESSION: M24847), which was reported by Hediger et al., was amplified by PCR method and inserted into the multi-cloning site of pcDNA3.1 (−) (Invitrogen). The DNA sequence inserted was perfectly matched to the previously reported sequence.
2) Establishment of Cell Line Stably Expressing Human SGLT1
The expression vector of human SGLT1 was digested by Sca I into a linear DNA. The linear DNA was transfected into CHO-K1 cells by means of lipofection (Effectene Transfection Reagent: QIAGEN). Neomycin resistant cell lines were selected by culture in the medium containing G418 (1 mg/mL, LIFE TECHNOLOGIES), and then the activity against the uptake of methyl-α-D-glucopyranoside was measured by the method described below. […] CS1-5-11D cells were cultured in the presence of G418 at 200 μg/mL. […]
CS1-5-11D cells were seeded into a 96-well culture plate at a density of 3×10^4 cells/well and cultured for 2 days, and were used in the uptake assay. […] Radioactivity was measured by means of micro-scintillation counter TopCount (Packard). […]

As a reminder, the IC50 is the point on the concentration scale where inhibition reaches its midpoint. At human SGLT2, `Cc1ccc(Cc2cccc3cc([C@@H]4O[C@H](CO)[C@@H](O)[C@H](O)[C@H]4O)sc23)cc1` [Example 3, 2-(β-D-Glucopyranosyl)-7-(4-methylbenzyl)benzo[b]thiophene] returned an IC50 of 2 nM. This lies in the single-digit nanomolar range.
Turning to `OC[C@H]1O[C@@H](c2cc3c(CCc4ccccc4)cccc3s2)[C@H](O)[C@@H](O)[C@@H]1O` [Example 1, 2-(β-D-Glucopyranosyl)-4-(2-phenylethyl)benzo[b]thiophene], the IC50 on human SGLT1 is 220 nM; on human SGLT2, 58 nM.
For the compound `OC[C@H]1O[C@@H](c2cc3cccc(CCc4ccccc4)c3s2)[C@H](O)[C@@H](O)[C@@H]1O` [Example 2, 2-(β-D-Glucopyranosyl)-7-(2-phenylethyl)benzo[b]thiophene], the IC50 on human SGLT2 was 130 nM. That is a sub-micromolar value.
